Test results taken from the supplement of paper PMC10307832.

How the values were obtained:
Experiment in all cases: relative viability (nuclei count vs DMSO), 5 days (fraction); higher = more cells survive
[1] = compound: Cc1nc(Nc2ncc(C(=O)Nc3c(C)cccc3Cl)s2)cc(N2CCN(CCO)CC2)n1 [Dasatinib] + CCNC(=O)c1noc(-c2cc(C(C)C)c(O)cc2O)c1-c1ccc(CN2CCOCC2)cc1 [Luminespib] (partner 0.01 µM)
How it was run: (§1)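 Values are medians from duplicate plates. Each reflects relative viability, defined as the nuclei count of treated wells over that of vehicle wells. Lung cancer cell lines in 1536-well plates were pin-tool dosed one day after seeding with one drug alone or with a fixed anchor-drug dose plus five library-drug doses (not always all listed) in √10 steps, then fixed, stained and imaged at 4× after 5 days.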

[2] = compound: Cc1nc(Nc2ncc(C(=O)Nc3c(C)cccc3Cl)s2)cc(N2CCN(CCO)CC2)n1 [Dasatinib] + COc1cccc2cc(-c3nc([C@H]4CC[C@H](C(=O)O)CC4)n4ncnc(N)c34)[nH]c12 [OSI-027] (partner 0.5 µM)
How it was run: as §1

[3] = compound: Cc1nc(Nc2ncc(C(=O)Nc3c(C)cccc3Cl)s2)cc(N2CCN(CCO)CC2)n1 [Dasatinib] + NC(=O)Nc1cc(-c2cccc(F)c2)sc1C(=O)N[C@H]1CCCNC1 [AZD7762] (partner 0.2 µM)
How it was run: as §1

[4] = compound: Cc1nc(Nc2ncc(C(=O)Nc3c(C)cccc3Cl)s2)cc(N2CCN(CCO)CC2)n1 [Dasatinib] + O=C(CCCCCCC(=O)Nc1ccccc1)NO [Vorinostat] (partner 1 µM)
How it was run: as §1

Cell Line	relative viability ([1]; first compound 0.005 µM)	relative viability ([1]; first compound 0.01581 µM)	relative viability ([1]; first compound 0.05 µM)	relative viability ([1]; first compound 0.1581 µM)	relative viability ([1]; first compound 0.5 µM)	relative viability ([2]; first compound 0.005 µM)	relative viability ([2]; first compound 0.01581 µM)	relative viability ([2]; first compound 0.05 µM)	relative viability ([2]; first compound 0.1581 µM)	relative viability ([2]; first compound 0.5 µM)	relative viability ([3]; first compound 0.005 µM)	relative viability ([3]; first compound 0.01581 µM)	relative viability ([3]; first compound 0.05 µM)	relative viability ([3]; first compound 0.1581 µM)	relative viability ([3]; first compound 0.5 µM)	relative viability ([4]; first compound 0.005 µM)	relative viability ([4]; first compound 0.01581 µM)	relative viability ([4]; first compound 0.05 µM)	relative viability ([4]; first compound 0.1581 µM)	relative viability ([4]; first compound 0.5 µM)
NCI-H1437	1.11	1.12	1.16	1.08	0.665	1.01	0.863	0.837	0.798	0.365	1.22	1.05	1.04	0.893	0.221	0.972	1.04	1.03	0.914	0.59
NCI-H1651	0.742	0.723	0.868	0.677	0.63	0.801	0.503	0.529	0.572	0.487	0.475	0.384	0.382	0.374	0.333	0.546	0.433	0.481	0.465	0.359
NCI-H1666	0.992	1.05	1.06	0.88	0.459	0.915	0.843	0.849	0.733	0.486	0.852	0.685	0.762	0.622	0.411	1.2	1.06	1.23	1.07	0.761
NCI-H1734	0.185	0.191	0.159	0.167	0.156	0.562	0.432	0.476	0.411	0.307	0.524	0.482	0.482	0.406	0.386	0.721	0.71	0.703	0.529	0.496
NCI-H1755	0.522	0.301	0.375	0.303	0.16	0.679	0.604	0.507	0.384	0.191	0.424	0.33	0.296	0.25	0.215	0.655	0.718	0.568	0.421	0.374
NCI-H1793	0.164	0.14	0.148	0.128	0.104	0.2	0.238	0.234	0.218	0.147	0.425	0.369	0.247	0.229	0.273	0.56	0.571	0.46	0.357	0.344
NCI-H1915	0.818	0.601	0.673	0.208	0.149	0.559	0.516	0.463	0.187	0.164	0.693	0.616	0.509	0.21	0.212	0.539	0.483	0.446	0.374	0.119
NCI-H1944	0.73	0.625	0.609	0.448	0.129	0.365	0.404	0.284	0.179	0.174	0.41	0.388	0.294	0.21	0.187	0.573	0.527	0.452	0.196	0.169
NCI-H1975	0.177	0.212	0.155	0.178	0.139	0.608	0.589	0.556	0.32	0.201	0.714	0.538	0.578	0.442	0.317	0.668	0.613	0.654	0.356	0.299
NCI-H1993	0.883	0.598	0.971	0.432	0.543	0.512	0.524	0.491	0.532	0.554	0.777	0.639	0.755	0.444	0.485	0.722	0.73	0.692	0.394	0.435
NCI-H2085	0.411	0.307	0.459	0.275	0.166	0.554	0.626	0.34	0.251	0.164	0.992	0.688	0.436	0.39	0.2	0.831	0.632	0.567	0.259	0.202
NCI-H2087	0.211	0.133	0.152	0.148	0.149	0.571	0.607	0.697	0.531	0.278	1.34	1.19	1.49	0.857	0.556	0.954	0.494	0.778	0.714	0.156
NCI-H2126	0.837	0.792	0.835	0.55	0.375	0.722	0.551	0.623	0.611	0.307	0.971	0.847	0.98	0.885	0.511	0.796	0.597	0.755	0.521	0.312
NCI-H2170	0.497	0.482	0.597	0.315	0.273	0.71	0.635	0.711	0.568	0.323	0.864	0.779	0.633	0.409	0.278	0.797	0.72	0.743	0.467	0.334
NCI-H2342	0.769	0.548	0.439	0.437	0.281	0.563	0.503	0.518	0.403	0.36	0.469	0.384	0.383	0.341	0.315	0.734	0.654	0.603	0.458	0.339
NCI-H2347	0.404	0.359	0.266	0.23	0.276	0.233	0.242	0.269	0.234	0.218	0.614	0.538	0.549	0.296	0.282	0.422	0.298	0.363	0.263	0.238
